Drawing on US20160146819A1, “CLASSIFICATION SYSTEM, METHODS AND KIT FOR CLASSIFYING, PREDICTING AND TREATING BREAST CANCER” (UNIVERSITY OF MIAMI, priority 2013, published 2016), this text covers cell proliferation for 1 molecule.

The assay has as its system MDA-MB-453 breast cancer cell line (HR2+/HER2+, ER-negative). Kind of assay: Cell proliferation assay, MDA-MB-453 cells. The class given is cell-based, human. The conditions noted are these: MDA-MB-453 (ER-negative control); ICI 182,780 100 nM alone.

“Also recorded” adds a separate entry of the source.

Description: All cell lines were cultured according to ATCC's guidelines. BT20, HCC1187, MDAMB468 and SUM159 cells were trypsinized with 0.05% trypsin/EDTA and plated at appropriate densities (BT20: 6,000, HCC1187: 10,000, MDAMB468: 4,000 and SUM159: 1,000 cells/well) in 96 well plates in DMEM+10% FBS. The next day Calcitriol and Taxol were added at concentrations of 25 nM and 1.5 nM respectively (Day0). For ZR75B, 4000 cells/well were plated in 96 well plates in DMEM+10% FBS. […] Calcitriol and 5 nM IC1180,782 were added the next day with fresh medium (Day0). Media was refreshed every two days and cell proliferation assay was performed on day 6 for above cell lines. The T47D cells were trypsinized with phenol red free Triple Express (Invitrogen) and washed once with PBS and 10,000 cells/well were plated in phenol red free DMEM+5% charcoal stripped FBS (CSFBS) in 96 well plates and cultured for 3 days. On the fourth day, 10 nM 17 beta estradiol (E2) was added into all the wells except non-drug treatment group, in addition to 10 nM IC1180,782, 10 nM R1881 and 50 nM Calcitriol in different groups with fresh phenol red free DMEM+5% CSFBS (Day0). […] All the proliferation assays were carried out using cell titer blue reagent (Promega) and fluorescence was measured using Bio-Tek spectrophotometer at 530/25 nm (excitation) and 590/35 nm (emission). […]

For the molecule `C[C@]12CC[C@@H]3c4ccc(O)cc4C[C@@H](CCCCCCCCC[S+]([O-])CCCC(F)(F)C(F)(F)F)[C@H]3[C@@H]1CC[C@@H]2O` (stereo partly shown) [ICI 182,780], the cell proliferation result is reported as “no inhibition was observed; also recorded: no inhibition of cell proliferation”.
